Assay results as given in article PMC2825747 (Journal of medicinal chemistry, 2010).

Columns and labels:
[1] = target: human thymidylate synthase (hTS) (Homo sapiens, UniProt P04818); test: Thymidylate synthase; assay type: biochemical; settings: versus pemetrexed
PDGFR-β = PDGFR-β (Homo sapiens, UniProt P09619); test: PDGFR-β kinase inhibition, phosphotyrosine cytoblot in SF539 cells; assay type: cell-based; settings: versus DMBI
[2] = system: MDA-MB-435, A431, Capan-1, HUVEC, HMEC-1, Huperi-3, human aortic SMCs; test: Cell viability; settings: 24 h drug then 24 h serum-containing media; Fig. 10
[3] = system: MDA MB 435 metastatic dermal breast cancer cells; test: Cell cycle analysis in MDA-MB-435 cells; assay type: cell-based, human; settings: 20 μM, 24 h exposure
MDA-MB-435 breast cells = test: Cell signaling analysis; assay type: cell-based, human; settings: MDA-MB-435 cells, 20 μM, 1 or 4 h
[4] = target: T1, Toxoplasma gondii thymidylate synthase (Toxoplasma gondii, UniProt Q07422); test: biochemical
T1 sequence (Q07422 1-610): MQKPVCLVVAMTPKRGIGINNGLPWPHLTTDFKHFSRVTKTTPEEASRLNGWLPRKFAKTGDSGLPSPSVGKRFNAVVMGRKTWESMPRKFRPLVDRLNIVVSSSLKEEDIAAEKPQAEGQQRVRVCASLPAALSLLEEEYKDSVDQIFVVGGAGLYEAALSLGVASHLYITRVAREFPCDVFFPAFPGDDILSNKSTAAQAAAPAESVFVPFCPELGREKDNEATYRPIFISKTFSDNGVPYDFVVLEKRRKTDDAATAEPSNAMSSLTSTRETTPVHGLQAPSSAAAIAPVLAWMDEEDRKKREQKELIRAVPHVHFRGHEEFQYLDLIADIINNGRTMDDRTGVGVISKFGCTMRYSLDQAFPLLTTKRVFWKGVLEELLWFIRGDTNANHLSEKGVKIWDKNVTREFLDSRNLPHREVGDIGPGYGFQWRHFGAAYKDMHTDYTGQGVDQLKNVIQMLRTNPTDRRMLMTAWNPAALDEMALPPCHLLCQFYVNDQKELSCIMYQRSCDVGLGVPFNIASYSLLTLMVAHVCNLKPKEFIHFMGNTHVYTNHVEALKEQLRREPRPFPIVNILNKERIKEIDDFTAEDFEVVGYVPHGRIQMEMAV

Flt-3 = target: T2, Flt-3 (Homo sapiens, UniProt P36888); test: Flt-3 kinase whole cell assay, cytoblot in MV 3:11 cells; assay type: cell-based; settings: versus 16
T2 sequence (P36888 27-993): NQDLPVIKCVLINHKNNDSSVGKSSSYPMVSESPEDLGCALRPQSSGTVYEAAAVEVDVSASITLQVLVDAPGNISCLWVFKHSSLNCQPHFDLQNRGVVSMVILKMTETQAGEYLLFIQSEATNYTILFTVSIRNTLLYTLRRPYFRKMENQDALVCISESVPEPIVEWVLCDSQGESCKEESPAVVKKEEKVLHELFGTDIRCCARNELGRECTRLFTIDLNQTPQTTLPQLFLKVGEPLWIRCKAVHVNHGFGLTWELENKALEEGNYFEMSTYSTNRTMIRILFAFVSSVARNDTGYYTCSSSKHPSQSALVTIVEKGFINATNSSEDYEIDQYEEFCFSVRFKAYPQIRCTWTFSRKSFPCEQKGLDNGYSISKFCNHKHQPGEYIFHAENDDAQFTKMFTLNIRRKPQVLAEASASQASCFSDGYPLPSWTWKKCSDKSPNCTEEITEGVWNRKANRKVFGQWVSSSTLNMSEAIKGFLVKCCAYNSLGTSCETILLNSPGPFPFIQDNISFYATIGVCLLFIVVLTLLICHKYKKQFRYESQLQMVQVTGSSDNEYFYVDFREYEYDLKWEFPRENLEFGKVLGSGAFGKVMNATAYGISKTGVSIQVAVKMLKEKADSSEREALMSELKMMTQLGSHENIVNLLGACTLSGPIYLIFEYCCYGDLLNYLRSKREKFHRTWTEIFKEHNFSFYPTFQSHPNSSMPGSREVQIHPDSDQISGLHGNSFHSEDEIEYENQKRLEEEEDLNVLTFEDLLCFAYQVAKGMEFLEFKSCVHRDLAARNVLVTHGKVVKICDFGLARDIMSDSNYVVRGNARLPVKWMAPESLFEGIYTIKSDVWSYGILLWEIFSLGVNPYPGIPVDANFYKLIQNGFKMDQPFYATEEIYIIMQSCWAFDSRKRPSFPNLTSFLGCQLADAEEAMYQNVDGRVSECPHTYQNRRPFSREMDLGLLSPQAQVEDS

[5] = target: T3, Toxoplasma gondii dihydrofolate reductase (Toxoplasma gondii, UniProt Q07422); test: biochemical
T3 sequence (Q07422 1-610): T1 sequence (Q07422 1-610)

[6] = target: E. coli thymidylate synthase (Escherichia coli, UniProt P0A884); test: Thymidylate synthase; assay type: biochemical
Sequence of E. coli thymidylate synthase (P0A884 whole entry): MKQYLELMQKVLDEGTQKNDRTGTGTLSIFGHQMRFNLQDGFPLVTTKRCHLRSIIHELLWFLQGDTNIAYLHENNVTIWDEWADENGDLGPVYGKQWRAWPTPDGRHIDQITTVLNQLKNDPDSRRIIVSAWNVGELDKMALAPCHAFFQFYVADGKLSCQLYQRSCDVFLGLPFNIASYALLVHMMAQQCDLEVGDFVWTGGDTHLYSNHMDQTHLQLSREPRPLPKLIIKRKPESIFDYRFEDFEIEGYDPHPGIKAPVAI

[7] = Dose-finding embryo lethality in CAM model; assay type: in vivo; settings: chicken embryos, 3 days after injection
[8] = Whole animal toxicity assay; settings: doses up from 75 mg/kg; no MTD was determined
[9] = system: COLO-205 metastatic colon cancer cells; test: COLO-205 human metastatic colon mouse xenograft; assay type: in vivo, athymic mice; settings: 1 at both 25 and 35 mg/kg; DMBI 15 mg/kg three times weekly
NCI 60 tumor cell lines = test: NCI preclinical 60 tumor cell line panel growth inhibition; assay type: cell-based; settings: Homo sapiens, read-out: GI50 against the growth of the NCI 60 tumor cell lines

Sequence of human thymidylate synthase (hTS) (P04818 whole entry): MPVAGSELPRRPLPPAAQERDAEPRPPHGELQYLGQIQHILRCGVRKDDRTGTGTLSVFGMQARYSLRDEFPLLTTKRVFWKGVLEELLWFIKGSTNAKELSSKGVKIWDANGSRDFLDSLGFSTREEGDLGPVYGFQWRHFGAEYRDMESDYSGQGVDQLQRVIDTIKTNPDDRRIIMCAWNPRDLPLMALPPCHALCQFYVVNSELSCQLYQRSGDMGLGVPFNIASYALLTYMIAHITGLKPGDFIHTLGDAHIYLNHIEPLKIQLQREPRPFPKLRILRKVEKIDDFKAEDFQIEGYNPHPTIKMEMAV
Sequence of PDGFR-β (P09619 33-1106): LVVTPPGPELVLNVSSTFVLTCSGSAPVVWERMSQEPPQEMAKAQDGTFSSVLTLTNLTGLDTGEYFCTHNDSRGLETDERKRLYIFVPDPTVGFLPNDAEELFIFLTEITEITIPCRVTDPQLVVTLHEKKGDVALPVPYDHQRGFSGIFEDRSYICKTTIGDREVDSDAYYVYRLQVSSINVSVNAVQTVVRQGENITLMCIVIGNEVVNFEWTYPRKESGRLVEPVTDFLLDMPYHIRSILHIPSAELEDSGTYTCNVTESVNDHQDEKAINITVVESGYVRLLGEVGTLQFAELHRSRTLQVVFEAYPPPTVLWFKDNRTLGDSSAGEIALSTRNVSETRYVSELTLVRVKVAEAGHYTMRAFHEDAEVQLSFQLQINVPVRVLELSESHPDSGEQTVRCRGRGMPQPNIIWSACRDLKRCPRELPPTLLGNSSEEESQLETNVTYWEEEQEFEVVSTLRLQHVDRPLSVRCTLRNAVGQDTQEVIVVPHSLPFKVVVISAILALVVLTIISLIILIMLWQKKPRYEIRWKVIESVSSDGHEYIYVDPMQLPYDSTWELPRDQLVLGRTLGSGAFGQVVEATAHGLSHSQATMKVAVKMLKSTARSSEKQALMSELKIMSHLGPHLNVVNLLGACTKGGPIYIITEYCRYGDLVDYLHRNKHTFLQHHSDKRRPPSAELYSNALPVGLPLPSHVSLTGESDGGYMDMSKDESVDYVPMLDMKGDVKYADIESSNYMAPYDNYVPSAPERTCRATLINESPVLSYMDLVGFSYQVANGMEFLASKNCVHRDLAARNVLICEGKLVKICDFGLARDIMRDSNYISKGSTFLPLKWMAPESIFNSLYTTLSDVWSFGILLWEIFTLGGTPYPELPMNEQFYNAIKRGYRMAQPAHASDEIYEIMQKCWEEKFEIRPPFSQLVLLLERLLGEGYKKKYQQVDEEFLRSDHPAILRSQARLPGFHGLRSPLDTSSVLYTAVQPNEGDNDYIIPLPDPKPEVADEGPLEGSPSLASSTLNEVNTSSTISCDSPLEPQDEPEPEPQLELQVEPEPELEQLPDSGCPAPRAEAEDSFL

Row | hTS: fold more active than PMX as its monoglutamate [1] [fold] | PDGFR-β: fold less potent than the standard DMBI (PDGFR-β) | Flt-3: fold less active compared with standard 16 (Flt-3) | IC50 [6] [µM] | SMILES | cell viability (cell kill) sensitivity by cell type [2] | cell cycle effect [3] | levels of activated phospho-Akt (MDA-MB-435 breast cells) | levels of activated phospho-p42/44 MAPkinase (ERK 1/2) (MDA-MB-435 breast cells) | levels of cleaved caspase 3 (MDA-MB-435 breast cells) | IC50 [4] [µM] | IC50 [5] [µM] | highest dose resulting in no lethality or overt toxicity in embryos [7] [mg/kg] | tolerability in mice [8] | numbers of COLO-205 metastases to the liver [9] | GI50 (NCI 60 tumor cell lines) [µM]
1 | 76 | about 11 fold | about 13 fold | > 26 | Cc1ccc(Sc2cccc3[nH]c4nc(N)nc(N)c4c23)cc1 [Compound 2, 5-[(4-methylphenyl)thio]-9H-pyrimido[4,5-b]indole-2,4-diamine] | tumor cells being the most sensitive, endothelial cells falling someplace in the middle, and SMC variants being the least sensitive | increase in S phase | neither agent resulted in increased levels of activated phospho-Akt | reduced levels of activated ERK 1/2 | neither 20 μM 1 or 20 μM 2 resulted in increased levels of cleaved caspase 3 | > 26 | > 31 | – | – | – | –
2 | – | – | – | – | Nc1ccn([C@@H]2O[C@H](CO)[C@@H](O)C2(F)F)c(=O)n1 [gemcitabine, reference compound] | – | – | – | – | – | – | – | 10 | – | – | –
3 | – | – | – | – | Nc1nc(N)c2c(n1)[nH]c1cccc(Sc3ccccc3)c12 [Compound 1, 5-(phenylthio)-9H-pyrimido[4,5-b]indole-2,4-diamine] | Human retinal pericytes (Huperi-3),[64] (not human aortic SMCs), were very sensitive | buildup in G2/M | neither agent resulted in increased levels of activated phospho-Akt | reduced levels of activated ERK 1/2 | neither 20 μM 1 or 20 μM 2 resulted in increased levels of cleaved caspase 3 | – | – | 25 | well tolerated without any visual ADRs or loss in weight | significantly reduced numbers of COLO-205 metastases to the liver | 1 to 10
